# Laboratory results from patent US9078874B2, “Composition and method for treating cognitive impairments in down syndrom subjects” (Centre National De La Recherche Scientifique—CNRS, priority 2009, dated 2015).
# Where two headings read alike, the source gives them in different places.
# Assays:
# euploid and Ts65Dn mice [1] = test: Locomotor activity and anxiety in the open field; assay type: in vivo
# Protocol: FIG. 7 depicts results from a locomotor activity and anxiety study of α5IA in Ts65Dn and euploid mice in the open field. Effects of α5IA (5 mg/kg) were evaluated on locomotion and anxiety in the open field.
# Locomotor activity was evaluated in a total of 33 mice 30 min after i.p. injections (placebo: 8 euploid and 7 Ts65Dn mice; α5IA (5 mg/kg): 10 euploid and 8 Ts65Dn mice). Locomotion was measured in a square open field (50 cm×50 cm; luminosity: 30 lux) with black walls 30 cm high. Briefly, each animal was placed in the center of the arena and allowed to freely explore it for 10 min. Horizontal activity was monitored using the Any-Maze software. Time spent in the 10-cm wide peripheral zone and in the complementary 30 cm×30 cm central zone was recorded to evaluate anxiety.
# rats [2] = conditions: 240 mg/kg for 5 weeks; cited from earlier work
# mouse hippocampal slice = conditions: cited from earlier work
# mice = test: Anatomopathology after chronic treatment; assay type: in vivo; conditions: 5 mg/kg, 5 injections/week for 5 weeks
# Protocol: FIG. 8 depicts results from a histological lesion study of α5IA after chronic treatment. Following chronic treatment with α5IA (5 mg/kg; 5 injections/week for 5 weeks), different organs were ablated and processed for routine histopathological examination. […] The same negative findings were observed following Periodic acid-Schiff staining of the tissues (not illustrated). […] The size and distribution of urine crystals (not illustrated) appeared to be very similar in the different groups. The scale bar represents 100 μm.
# Mice treated for 2 weeks with α5IA and tested in the elevated plus maze were further treated for another 3 weeks. On the last day of treatment, urine samples were collected 2 hours after α5IA or placebo i.p. administration. Urine was stored at −20° C. before analysis. The day after, mice were injected i.p. with an overdose of sodium pentobarbital. Deeply anaesthetized mice received a PBS flush by means of an intracardiac perfusion. For anatomo-pathological examination, 3 additional euploid non-injected mice were also sacrificed. Liver, kidney, brain and spleen were dissected and fixed in a 10% formalin solution. Tissues were then paraffin-embedded and cut using a microtome (5 μm thick sections) before being processed for routine histopathological evaluation (hematein-eosin and Periodic acid-Schiff stainings).
# euploid and Ts65Dn mice [3] = test: Anxiety-related behavior in the elevated plus maze; assay type: in vivo; conditions: for Time spent in the open arms of the elevated plus-maze: acute, one single 15 mg/kg i.p. injection
# Protocol: FIG. 6 depicts results from an anxiety-related behavior study of α5IA. Anxiety was assessed in the elevated plus maze, in both euploid and Ts65Dn mice under placebo or α5IA. Time spent in the open arms of the elevated plus-maze was taken as a measure of anxiety levels.
# Modulation of anxiety-related behaviors by α5IA was more precisely assessed using an elevated-plus maze, in a total of 42 mice, 30 min after i.p. injections (placebo: 11 euploid and 7 Ts65Dn mice; α5IA (15 mg/kg): 14 euploid and 10 Ts65Dn mice). The maze was constructed of black perspex (length, 28 cm; width, 5 cm; height from floor, 40 cm; overall luminosity in open arms: 70 1×) with two opposing open arms, and two enclosed arms equipped with three 16 cm high walls. Mice were placed in the central region of the maze and behavior was recorded for a 5 min period using the Any. Maze software that automatically calculates the time spent in the different parts of the maze (e.g., open and enclosed arms).
# To explore the potential adversity of chronic injections of α5IA (5 mg/kg), another group of euploid mice was treated for two weeks (5 injections/week; 5 α5IA treated mice; 5 placebo-treated mice). After repeated treatment, these mice were evaluated in the elevated plus maze as described above.
# rats [4] = conditions: cited from earlier work
# [5] = test system: GABAA receptors containing either an α1, α2, α3 or α5 subunit; conditions: cited from earlier work
# euploid and Ts65Dn mice [6] = test: Morris water maze (MWM) spatial reference memory; assay type: in vivo
# Protocol: Spatial reference memory was evaluated using the standard Morris water maze task. The maze was similar to the one described above (dose-response effects of α5IA). The platform was submerged 1 cm below water surface in the center of one of the pool quadrants. During spatial allocentric training the non-visible platform remained at a constant position throughout the trials with numerous external visual indices available to facilitate formation of spatial cognitive maps.
# A total of 32 mice (16 euploid and 16 Ts65Dn mice) were used. Animals were randomly and equally distributed into 4 groups. Each day mice were injected with placebo or α5IA (5 mg/kg) 30 min before the onset of behavioral testing.
# On the first day, mice were submitted to a single habituation trial with the non-visible platform available. On the following six days, spatial allocentric training consisted in daily sessions (2 trials per session). Start positions varied pseudo-randomly among the four cardinal points. Mean inter-trial interval was 2 hours. During the habituation and spatial training phases each trial ended when the animal reached the platform. A 90 sec cut-off was used, after which mice were manually guided to the platform. Once on the platform, animals were given a 20 sec rest before being replaced in their cage. Twenty-four hours after the last training session, a probe trial was performed (Day 8) during which the platform was removed and mice allowed to freely navigate for 60 sec.
# Following evaluation of spatial learning and memory skills, visual ability of mice was controlled using a non-spatial training procedure. Platform location was directly cued by a white styrene ball placed 12 cm above water surface and access to external indices was prevented by a black curtain surrounding the pool. Testing in this visually guided navigation task consisted of 4 daily sessions for 4 consecutive days as described above.
# All data were collected, analyzed and stored using a video-tracking system (Ethovision, Noldus, Wageningen, The Netherlands).
# During probe trial one supplementary (euploid) mouse was removed from analysis for the same reason.
# receptor = conditions: rats, 3 mg/kg, cited from earlier work
# [7] = mainly in urine and in feces; cited from earlier work
# [8] = Ts65Dn mice, 5 mg/kg i.p. 30 min before each session
smiles,measurement,setting,value
"Cc1cc(-c2nnc3c4ccccc4c(OCc4cn(C)nn4)nn23)no1 [α5IA, 3-(5-methylisoxazol-3-yl)-6-[(1-methyl-1,2,3-triazol-4-yl)methyloxy]-1,2,4-triazolo[3,4-a]phthalazine]",locomotor activity and anxiety (periphery-to-center exploration ratio) in the open field,"euploid and Ts65Dn mice [1]; 5 mg/kg, Ts65Dn and euploid mice",did not alter locomotor activity and anxiety
same,horizontal activity (traveled distances),"euploid and Ts65Dn mice [1]; single injection 5 mg/kg, euploid and Ts65Dn mice",did not modify the gross locomotor activity
same,renal toxicity,rats [2],renal pyelitis and papillitis associated with crystals formation
same,long-term potentiation,mouse hippocampal slice,enhance long-term potentiation
same,"abnormal crystals in brain, hepatic and renal tissues under polarized light",mice,lack of abnormal crystals
same,histological lesions,"mice; liver, kidney, brain",did not induce any histological lesions
same,Time spent in the open arms of the elevated plus-maze,"euploid and Ts65Dn mice [3]; Ts65Dn mice, p<0.05",significantly reduced the time spent in open arms
same,Time spent in the open arms of the elevated plus-maze,euploid and Ts65Dn mice [3]; euploid mice,did not modify the behavior
same,anxiety levels in the elevated plus maze,"euploid and Ts65Dn mice [3]; semi-chronic, 5 mg/kg 5 times a week for 2 weeks, euploid mice, p>0.73",did not alter the anxiety levels
same,cognitive performance in variant of the Morris water maze task,"rats [4]; rat, in vivo",enhance cognitive performance
same,effective promnesiant dose in the MWM test,rats [4]; rats,3 mg/kg
same,binding affinity at the benzodiazepine binding site,[5],equal affinity
same,hits (reaching the platform before 90 sec),euploid and Ts65Dn mice [6]; [8],reversed after treatment
same,learning index,euploid and Ts65Dn mice [6]; [8],corrected by treatment
same,learning performance in the MWM,"euploid and Ts65Dn mice [6]; control euploid mice, 5 mg/kg",did not observe a significant promnesiant effect
same,"thigmotaxy, significance of the effect","euploid and Ts65Dn mice [6]; euploid mice (p=0.06), 5 mg/kg",just failed to reach statistical significance
same,retention performance during the probe test (24 hours),"euploid and Ts65Dn mice [6]; euploid or Ts65Dn mice, 5 mg/kg",did not significantly increase retention performance
same,performance in the cued (visible platform) version of the MWM,"euploid and Ts65Dn mice [6]; p>0.16, 5 mg/kg",did not find any effect
same,thigmotaxy (wall-seeking behavior),"euploid and Ts65Dn mice [6]; particularly in Ts65Dn mice (p<0.001), 5 mg/kg",strongly decreased
same,receptor occupancy,receptor; after 2 h,80%
same,receptor occupancy,receptor; after 8 h,60%
same,metabolism,[7],exclusively metabolized into the hydroxymethyl isoxazol metabolite M1
